Measurements as given in PubChem BioAssay AID248 (DTP/NCI, 2004).
“And” between values parts separate entries of the source, which are not always exact repeats. Identical values can stand only once. Toxic doses and inconclusive results are not listed. Rule as the data show it: active = T/C of 150% or more; inactive = T/C below 125%.

System: L1210 leukemia ip in BDF1 mice, survival T/C
Test: NCI In Vivo Anticancer Drug Screen. Data for tumor model L1210 Leukemia (intraperitoneal) in B6D2F1 (BDF1) mice
Conditions: endpoint: mean survival time, higher = longer survival
How it was run: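 Tumor was transplanted into mice, which were then dosed with test compound or vehicle alone. Survival was recorded for each group, and the treated figure was expressed relative to the control figure.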

Measured: T/C

Nc1nc(=S)c2[nH]cnc2[nH]1
inactive: dose: 0.04 mg/kg/injection, schedule: Q01DX Z (ip), vehicle: carboxymethylcellulose (CMC) 113 % of control | dose: 0.06 mg/kg/injection, schedule: Q01DX009 (ip), vehicle: alkali diluted with saline 106 % of control and 108 % of control | dose: 0.06 mg/kg/injection, schedule: Q01DX Z (ip), vehicle: carboxymethylcellulose (CMC) 105 % of control | dose: 0.06 mg/kg/injection, schedule: Q#A X Z (ip), vehicle: saline 121 % of control | dose: 0.09 mg/kg/injection, schedule: Q01DX Z (ip), vehicle: carboxymethylcellulose (CMC) 109 % of control | dose: 0.12 mg/kg/injection, schedule: Q01DX009 (ip), vehicle: alkali diluted with saline 111 % of control | dose: 0.13 mg/kg/injection, schedule: Q01DX Z (ip), vehicle: saline 111 % of control | dose: 0.13 mg/kg/injection, schedule: Q01DX Z (sc), vehicle: saline 107 % of control | dose: 0.14 mg/kg/injection, schedule: Q01DX Z (ip), vehicle: carboxymethylcellulose (CMC) 110 % of control | dose: 0.22 mg/kg/injection, schedule: Q01DX Z (ip), vehicle: carboxymethylcellulose (CMC) 115 % of control | dose: 0.22 mg/kg/injection, schedule: Q07DX003 (ip), vehicle: saline 113 % of control | dose: 0.25 mg/kg/injection, schedule: Q01DX Z (sc), vehicle: saline 116 % of control | dose: 0.33 mg/kg/injection, schedule: Q01DX015 (ip), vehicle: alkali diluted with saline 102 % of control | dose: 0.33 mg/kg/injection, schedule: Q01DX Z (ip), vehicle: carboxymethylcellulose (CMC) 119 % of control | dose: 0.37 mg/kg/injection, schedule: Q03DX006 (ip), vehicle: saline 114 % of control | dose: 0.44 mg/kg/injection, schedule: Q07DX003 (ip), vehicle: saline 122 % of control | dose: 0.5 mg/kg/injection, schedule: Q01DX006 (iv), vehicle: saline 106 % of control | dose: 0.5 mg/kg/injection, schedule: Q01DX Z (im), vehicle: saline 109 % of control | dose: 0.5 mg/kg/injection, schedule: Q01DX Z (ip), vehicle: carboxymethylcellulose (CMC) 111 % of control | dose: 0.5 mg/kg/injection, schedule: Q01DX Z (oral), vehicle: saline 113 % of control | dose: 0.75 mg/kg/injection, schedule: Q03DX006 (ip), vehicle: saline 118 % of control | dose: 0.88 mg/kg/injection, schedule: Q01DX001 (ip), vehicle: saline 115 % of control | dose: 1.0 mg/kg/injection, schedule: Q01DX006 (iv), vehicle: saline 112 % of control | dose: 1.0 mg/kg/injection, schedule: Q01DX Z (oral), vehicle: saline 116 % of control | dose: 1.75 mg/kg/injection, schedule: Q01DX001 (ip), vehicle: saline 109 % of control | dose: 1.8 mg/kg/injection, schedule: Q04DX002 (ip), vehicle: alkali diluted with saline 110 % of control | dose: 2.5 mg/kg/injection, schedule: Q01DX010 (ip), vehicle: other 123 % of control | dose: 3.5 mg/kg/injection, schedule: Q01DX001 (ip), vehicle: saline 109 % of control and 120 % of control | dose: 3.7 mg/kg/injection, schedule: Q01DX Z (ip), vehicle: carboxymethylcellulose (CMC) 110 % of control | dose: 4.0 mg/kg/injection, schedule: Q01DX Z (im), vehicle: saline 119 % of control | dose: 4.0 mg/kg/injection, schedule: Q01DX Z (ip), vehicle: carboxymethylcellulose (CMC) 93 % of control | dose: 4.0 mg/kg/injection, schedule: Q01DX Z (sc), vehicle: saline 106 % of control | dose: 5.0 mg/kg/injection, schedule: Q01DX010 (ip), vehicle: other 98 % of control and 104 % of control
active: dose: 0.43 mg/kg/injection, schedule: Q01DX009 (ip), vehicle: alkali diluted with saline 152 % of control | dose: 0.55 mg/kg/injection, schedule: Q01DX015 (ip), vehicle: alkali diluted with saline 151 % of control | dose: 0.55 mg/kg/injection, schedule: Q## X015 (ip), vehicle: alkali diluted with saline 151 % of control | dose: 0.88 mg/kg/injection, schedule: Q03HX016 (ip), vehicle: alkali diluted with saline 150 % of control | dose: 0.88 mg/kg/injection, schedule: Q03HX024 (ip), vehicle: alkali diluted with saline 152 % of control | dose: 0.9 mg/kg/injection, schedule: Q01DX015 (ip), vehicle: alkali diluted with saline 152 % of control | dose: 1.0 mg/kg/injection, schedule: Q01DX Z (ip), vehicle: carboxymethylcellulose (CMC) 152 % of control | dose: 1.2 mg/kg/injection, schedule: Q03HX032 (ip), vehicle: alkali diluted with saline 151 % of control and 152 % of control | dose: 1.5 mg/kg/injection, schedule: Q03DX006 (ip), vehicle: saline 154 % of control | dose: 2.0 mg/kg/injection, schedule: Q01DX Z (sc), vehicle: saline 153 % of control | dose: 3.5 mg/kg/injection, schedule: Q04DX008 (ip), vehicle: alkali diluted with saline 154 % of control | dose: 5.3 mg/kg/injection, schedule: Q04DX012 (ip), vehicle: alkali diluted with saline 153 % of control
